PMC9014859 (Journal of Medicinal Chemistry, 2022)
“Also recorded” adds a separate entry of the source.

What was measured:
[1] = test system: Rat small mesenteric artery
[2] = target: T1, NPR-C extracellular domains (Homo sapiens, UniProt P17342); test: Fluorescence polarization; format: binding; settings: competition against fluorescent P19 probe
T1 sequence (P17342 27-481): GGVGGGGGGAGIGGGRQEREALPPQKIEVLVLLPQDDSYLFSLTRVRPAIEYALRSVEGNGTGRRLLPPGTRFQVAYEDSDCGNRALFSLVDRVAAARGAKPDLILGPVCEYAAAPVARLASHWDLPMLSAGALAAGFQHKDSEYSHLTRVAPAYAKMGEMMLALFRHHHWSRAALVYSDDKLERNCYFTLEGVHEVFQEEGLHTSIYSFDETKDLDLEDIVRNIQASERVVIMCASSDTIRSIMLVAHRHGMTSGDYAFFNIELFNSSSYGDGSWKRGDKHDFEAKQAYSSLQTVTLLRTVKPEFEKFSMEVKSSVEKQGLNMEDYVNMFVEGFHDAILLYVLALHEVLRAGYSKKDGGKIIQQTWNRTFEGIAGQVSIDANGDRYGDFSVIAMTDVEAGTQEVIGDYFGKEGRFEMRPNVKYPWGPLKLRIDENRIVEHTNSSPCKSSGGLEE

[3] = test system: CYP1A2, 2B6, 2C8, 2C9, 2C19, 2D6, 3A4 (value spans the isoforms); test: in vitro; settings: human
[4] = test system: Mouse small mesenteric artery (NPR-C KO)
[5] = target: T2, Human FL NPR-C (27–541)-10His-Flag (Homo sapiens, UniProt P17342); test: Surface plasmon resonance; settings: SPR, affinity model, 1:1 binding; for Kd: KD (μM)
T2 sequence (P17342 27-541): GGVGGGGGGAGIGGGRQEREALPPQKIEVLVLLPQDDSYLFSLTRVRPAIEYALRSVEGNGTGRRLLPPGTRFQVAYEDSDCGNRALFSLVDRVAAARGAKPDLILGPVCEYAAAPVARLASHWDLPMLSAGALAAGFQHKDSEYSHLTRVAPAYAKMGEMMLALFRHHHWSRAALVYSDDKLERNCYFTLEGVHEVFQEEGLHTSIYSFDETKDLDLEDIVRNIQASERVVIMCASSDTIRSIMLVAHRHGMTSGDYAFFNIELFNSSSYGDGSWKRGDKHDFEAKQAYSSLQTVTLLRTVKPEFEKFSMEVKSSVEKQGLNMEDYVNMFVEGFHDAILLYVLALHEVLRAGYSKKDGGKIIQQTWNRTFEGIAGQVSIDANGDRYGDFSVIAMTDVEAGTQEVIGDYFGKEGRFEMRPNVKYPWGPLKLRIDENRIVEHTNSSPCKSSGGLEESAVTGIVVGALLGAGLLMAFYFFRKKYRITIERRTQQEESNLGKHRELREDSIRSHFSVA

in vitro [6] = settings: plasma
physchem = settings: solubility (mg/mL), PBS, 5% DMSO, room temperature, 3 h
[7] = pH 7.4
in vitro [8] = settings: male, Sprague-Dawley, rat, hepatocytes
[9] = test system: CYP isoforms 1A2, 2B6, 2C8, 2C9, 2C19, 2D6, 3A4; test: in vitro; settings: human
in vitro [10] = settings: PAMPA, pH 7.4, PAMPA Papp (cm/S × 10^–6)
[11] = target: T3, Human NPR-C in HeLa cells (Homo sapiens, UniProt P17342); test: Inhibition of forskolin-induced cAMP production in HeLa cells; settings: 100 μM compound, forskolin 10 μM
T3 sequence (P17342 27-541): T2 sequence (P17342 27-541)

CC(=O)Nc1ccc(Nc2ncnc(NCCC(=O)OC(C)(C)C)n2)cc1 [Compound 1, tert-Butyl 3-((4-((4-Acetamidophenyl)amino)-1,3,5-triazin-2-yl)amino)propanoate]
reduction in potency (EC50 value) when treated with M372049 ([1]; rat SMA): 10 fold | reduction in potency (EC50 value) when treated with osteocrin ([1]; rat SMA): 2.5 fold | FP EC50 (μM) [2]: Low % binding | EC50 [3]: > 50 µM | reduction in potency in NPR-C KO tissue ([4]; mouse SMA, KO vs wild-type): 6.4 fold

CC(=O)Nc1ccc(Nc2ncnc(N[C@@H](C)C(=O)OC(C)(C)C)n2)cc1 [Compound 39, tert-Butyl (4-((4-Acetamidophenyl)amino)-1,3,5-triazin-2-yl)-L-alaninate]
KD (μM) [5]: did not meet the minimum binding threshold

CC(=O)Nc1ccc(Nc2ncnc(N[C@H](CC(C)C)C(=O)OC(C)(C)C)n2)cc1 [Compound 34, tert-Butyl (4-((4-Acetamidophenyl)amino)-1,3,5-triazin-2-yl)-D-leucinate]
KD (μM) [5]: failing to pass the preliminary binding screen

CC(=O)Nc1ccc(Nc2ncnc(N[C@@H](CC(C)C)C(=O)O)n2)cc1 [Compound 27, (4-((4-Acetamidophenyl)amino)-1,3,5-triazin-2-yl)-L-leucine]
EC50 [3]: > 50 µM | fraction unbound (in vitro [6]): 0.15 | solubility (physchem): > 70 µg/mL

CC(=O)Nc1ccc(Nc2ncnc(N[C@H](CC(=O)OC(C)(C)C)Cc3ccccc3)n2)cc1 [Compound 44, tert-Butyl (S)-3-((4-((4-Acetamidophenyl)amino)-1,3,5-triazin-2-yl)amino)-4-phenylbutanoate]
FP EC50 (μM) [2]: Inactive | Kd [5]: 29.6 ± 4.5 µM

CON(C)C(=O)[C@H](CC(C)C)Nc1ncnc(Nc2ccc(NC(C)=O)cc2)n1 [Compound 32, (S)-2-((4-((4-Acetamidophenyl)amino)-1,3,5-triazin-2-yl)amino)-N-methoxy-N,4-dimethylpentanamide]
Kd [5]: 144 ± 7.7 µM

CC(=O)Nc1ccc(Nc2ncnc(NCC(=O)OC(C)(C)C)n2)cc1 [Compound 36, tert-Butyl (4-((4-Acetamidophenyl)amino)-1,3,5-triazin-2-yl)glycinate]
PAMPA Papp (cm/S × 10^–6) [7]: < 1

CC(=O)Nc1ccc(Nc2ncnc(NC(C)(C)C(=O)OC(C)(C)C)n2)cc1 [Compound 38, tert-Butyl 2-((4-((4-Acetamidophenyl)amino)-1,3,5-triazin-2-yl)amino)-2-methylpropanoate]
KD (μM) [5]: did not meet the minimum binding threshold

COC(=O)[C@H](CC(C)C)Nc1nc(Cl)nc(N[C@H]2CC[C@H](Nc3nc(Cl)nc(N[C@@H](CC(C)C)C(=O)OC)n3)CC2)n1 [Compound 17, Dimethyl 2,2′-(((((1r,4r)-Cyclohexane-1,4-diyl)bis(azanediyl))bis(6-chloro-1,3,5-triazine-4,2-diyl))bis(azanediyl))bis(4-methylpentanoate)]
hepatocyte CLint (in vitro [8]): < 6.4 µL/min/1e6 cells | half-life (in vitro [8]; hepatocyte (rat) T1/2 (min), 1 μM test compound): > 3.33 h | Rat small mesenteric artery EC50+NPR-C inhibitor (M372049) ± SEM (μM) ([1]; vasorelaxation, with M372049 (10 μM)): maintained their activity | EC50 [9]: 4.96 to 37.8 µM | Papp (in vitro [10]): < 1 ×10⁻⁶ cm/s | Papp (in vitro [10]; pH 7.4, 5 h, room temperature): < 0.023 ×10⁻⁶ cm/s | fraction unbound (in vitro [6]; Sprague-Dawley, human and rat): < 0.005 | solubility (physchem): > 70 µg/mL | inhibition of cAMP formation [11]: inhibition trend that did not reach statistical significance | Mouse small mesenteric artery NPR-C KO EC50 ± SEM (μM) ([4]; vasorelaxation, NPR-C knockout): maintained their activity

CC(=O)Nc1ccc(Nc2ncnc(N[C@@H](Cc3ccc(O)cc3)C(=O)OC(C)(C)C)n2)cc1 [Compound 42, tert-Butyl (4-((4-Acetamidophenyl)amino)-1,3,5-triazin-2-yl)-L-tyrosinate]
KD (μM) [5]: did not meet the minimum binding threshold

CC(=O)Nc1ccc(Nc2ncnc(N[C@@H](CC(C)C)C(=O)OC(C)(C)C)n2)cc1 [Compound 26, tert-Butyl (4-((4-Acetamidophenyl)amino)-1,3,5-triazin-2-yl)-L-leucinate]
FP EC50 (μM) [2]: Inactive | inhibition of cAMP formation [11]: inhibition trend that did not reach statistical significance

CC(C)C[C@H](Nc1nc(Cl)nc(Nc2ccc(NC(=O)c3ccccc3)cc2)n1)C(=O)OC(C)(C)C [Compound 22, tert-Butyl (4-((4-Benzamidophenyl)amino)-6-chloro-1,3,5-triazin-2-yl)-L-leucinate]
KD (μM) [5]: poor binding profile; also recorded: Rmax>>theoretical
